These results are taken from patent publication US20240158355A1, “BET SUBFAMILY INHIBITORS AND METHODS USING SAME” (Baylor College of Medicine, priority 2021, published 2024).

Series [1] addresses BRDT-BD2 (Homo sapiens (Human), UniProt Q58F21). In words: AlphaScreen bromodomain proximity assay (competition with biotinylated (+)-JQ1), BRDT-BD2. In kind it is binding. In general terms: In Alpha technology, singlet oxygen from a donor bead excites a nearby acceptor bead.
For series [2], the target named is BRDT-BD1 (Homo sapiens (Human), UniProt Q58F21). In words: AlphaScreen bromodomain proximity assay (competition with biotinylated (+)-JQ1), BRDT-BD1. In kind it is binding. Conditions: NE: no effect at 10 μM.
Series [3] deals with His-BRDT-BD2 (Homo sapiens (Human), UniProt Q58F21). Particulars: 0 = theoretically present in the library but not detected in the sequencing data.
Series [4] is described as follows: Metabolic stability assay in mouse liver microsomes. In kind it is in vitro ADME. Conditions: in words. As to the method:
Compounds 3-10, 15, 17, and 20-22 (2.0 μM) were incubated in the mouse or human liver microsomes (0.5 mg protein/mL) at 37° C. […] The reaction mixtures were centrifuged at rcf 15,000 for 15 min. […] The column temperature was maintained at 40° C. […] Q Exactive MS was operated in positive or negative mode with electrospray ionization.
On the technique in general: Liver microsomes are vesicles of endoplasmic reticulum, rich in cytochrome P450 enzymes.

For `CNC(=O)c1ccc(C(=O)Nc2cc(NC(=O)c3ccc4c(c3)c(-c3cc5ccccc5n3C)nn4C)ccc2C)cc1` [compound 8, N^1-Methyl-N^4-(2-methyl-5-(1-methyl-3-(1-methyl-1H-indol-2-yl)-1H-indazole-5-carboxamido)phenyl)terephthalamide], the IC50 in series [1] is 13 nM; in series [2], above 10000 nM. Also, in series [3], the “Count (observed molecule count in the DEC-Tec screen against BRDT-BD2)” value worked out at 846.

For `CNC(=O)c1ccc(C(=O)Nc2cc(NC(=O)c3ccc4c(c3)c(-c3ccc(OC)cc3)nn4C)ccc2C)cc1` [compound 11], the half-maximal inhibitory concentration (IC50) in series [1] was 521 nM; in series [2] it was above 10000 nM.

With `CNC(=O)c1ccc(C(=O)Nc2cc(NC(=O)c3ccc4c(c3)c(-c3cnc(N)nc3)nn4C)ccc2C)cc1` [compound 13, N^1-(5-(3-(2-Aminopyrimidin-5-yl)-1-methyl-1H-indazole-5-carboxamido)-2-methylphenyl)-N^4-methylterephthalamide], the IC50 in series [1] is 139 nM; in series [2], above 10000 nM.

As to `CNC(=O)c1ccc(C(=O)Nc2cc(NC(=O)c3ccc4c(c3)c(-c3cnc(N)cc3C)nn4C)ccc2C)cc1` [compound 15], in series [1], the IC50 was found to be 22 nM. In addition, the mouse microsomal stability result in series [4] is given as “high mouse microsomal stability”.

With `CC(=O)Nc1cc(NC(=O)c2ccc3c(c2)c(-c2ccc(N)nc2)nn3C)ccc1C` [compound 17, N-(3-Acetamido-4-methylphenyl)-3-(6-aminopyridin-3-yl)-1-methyl-1H-indazole-5-carboxamide], the IC50 in series [1] is 47 nM; in series [2], above 10000 nM. Also, the mouse microsomal stability entry in series [4] is given as “high mouse microsomal stability”.

In the case of `CCn1nc(-c2ccc(N)nc2)c2cc(C(=O)Nc3ccc(C)c(NC(C)=O)c3)ccc21` [compound 18, N-(3-Acetamido-4-methylphenyl)-3-(6-aminopyridin-3-yl)-1-ethyl-1H-indazole-5-carboxamide], the IC50 in series [1] was 79 nM; in series [2] it was above 10000 nM.

For the compound `CC(=O)Nc1cc(NC(=O)c2ccc3c(c2)c(-c2ccc(N)nc2)nn3C(C)C)ccc1C` [compound 19, N-(3-Acetamido-4-methylphenyl)-3-(6-aminopyridin-3-yl)-1-isopropyl-1H-indazole-5-carboxamide], the concentration for half-maximal inhibition (IC50) is 253 nM in series [1] and above 10000 nM in series [2].

Turning to `CC(=O)Nc1cccc(NC(=O)c2ccc3c(c2)c(-c2ccc(N)cc2C)nn3C)c1` [compound 21, N-(3-Acetamidophenyl)-3-(4-amino-2-methylphenyl)-1-methyl-1H-indazole-5-carboxamide], the IC50 in series [1] is 14 nM; in series [2], above 10000 nM. Besides, the mouse microsomal stability entry in series [4] is “high mouse microsomal stability”.

For the compound `CNC(=O)c1cc(NC(=O)c2ccc3c(c2)c(-c2ccc(N)cc2C)nn3C)ccc1C` [compound 22, 3-(4-Amino-2-methylphenyl)-1-methyl-N-(4-methyl-3-(methylcarbamoyl)phenyl)-1H-indazole-5-carboxamide], the IC50 in series [1] was 18 nM; in series [2] it was above 10000 nM. In addition, the mouse microsomal stability entry in series [4] is listed as “high mouse microsomal stability”.

Take `COc1ccc(NC(=O)c2ccc3c(c2)c(-c2ccc(N)cc2C)nn3C)cc1NC(=O)c1ccccc1` [compound 23, 3-(4-Amino-2-methylphenyl)-N-(3-benzamido-4-methoxyphenyl)-1-methyl-1H-indazole-5-carboxamide]: the IC50 in series [1] is 35 nM; in series [2], above 10000 nM.

Consider `COc1ccc(NC(=O)c2ccc3c(c2)c(-c2ccc(N)cc2C)nn3C)cc1` [compound 24, 3-(4-Amino-2-methylphenyl)-N-(4-methoxyphenyl)-1-methyl-1H-indazole-5-carboxamide], for which the values for the IC50 in series [1] and in series [2] were 54 nM and above 10000 nM, respectively.

Regarding `Cc1cc(N)ccc1-c1nn(C)c2ccc(C(=O)Nc3ccccc3)cc12` [compound 25, 3-(4-Amino-2-methylphenyl)-1-methyl-N-phenyl-1H-indazole-5-carboxamide], the IC50 in series [1] was 90 nM; in series [2], above 10000 nM.

As to `COc1ccc(N(C)C(=O)c2ccc3c(c2)c(-c2ccc(N)cc2C)nn3C)cc1` [compound 26, 3-(4-Amino-2-methylphenyl)-N-(4-methoxyphenyl)-N,1-dimethyl-1H-indazole-5-carboxamide], the figures for the half-inhibitory concentration (IC50) in series [1] and in series [2] were above 1000 nM and above 10000 nM, respectively.

As to `COc1ccc(NC(=O)c2ccc3nn(C)c(-c4ccc(N)cc4C)c3c2)cc1` [compound 27, 3-(4-Amino-2-methylphenyl)-N-(4-methoxyphenyl)-2-methyl-2H-indazole-5-carboxamide], the IC50 in series [1] is 17200 nM; in series [2], above 10000 nM.

In the case of `CNC(=O)c1ccc2c(c1)c(-c1ccc(N)cc1C)nn2C` [compound 55, 3-(4-Amino-2-methylphenyl)-N,1-dimethyl-1H-indazole-5-carboxamide], the IC50 in series [1] is 988 nM; in series [2] it was above 10000 nM.

Turning to `Cc1cc(N)ccc1-c1nn(C)c2ccc(C(=O)Nc3ccc(Cl)cc3)cc12` [compound 64, 3-(4-Amino-2-methylphenyl)-N-(4-chlorophenyl)-1-methyl-1H-indazole-5-carboxamide], the IC50 in series [1] worked out at 209 nM.

On to `Cc1cc(N)ccc1-c1nn(C)c2ccc(C(=O)Nc3ccc(OCC4CC4)cc3)cc12` [compound 65, 3-(4-Amino-2-methylphenyl)-N-(4-(cyclopropylmethoxy)phenyl)-1-methyl-1H-indazole-5-carboxamide], for which the IC50 in series [1] was 98 nM; in series [2], above 10000 nM.

In the case of `COc1ccc(NC(=O)c2ccc3c(c2)c(-c2ccc(NC(C)=O)cc2C)nn3C)cc1` [compound 66, 3-(4-Acetamido-2-methylphenyl)-N-(4-methoxyphenyl)-1-methyl-1H-indazole-5-carboxamide], the IC50 in series [1] was above 10000 nM.

Regarding `CNC(=O)c1ccc2c(c1)c(-c1cc3ccccc3n1C)nn2C` [compound 67, N,1-Dimethyl-3-(1-methyl-1H-indol-2-yl)-1H-indazole-5-carboxamide], the results for the IC50 in series [1] and in series [2] were 261 nM and above 10000 nM, respectively.

For `COc1ccc(NC(=O)c2ccc3c(c2)c(-c2cc4ccccc4n2C)nn3C)cc1Br` [compound 68, N-(3-Bromo-4-methoxyphenyl)-1-methyl-3-(1-methyl-1H-indol-2-yl)-1H-indazole-5-carboxamide], in series [1], the IC50 is 274 nM.

On to `COc1ccc(NC(=O)c2ccc3c(c2)c(-c2cc4ccccc4n2C)nn3C)cc1I` [compound 69, N-(3-Iodo-4-methoxyphenyl)-1-methyl-3-(1-methyl-1H-indol-2-yl)-1H-indazole-5-carboxamide], for which the IC50 in series [1] is 502 nM.

Regarding `COc1ccc(NC(=O)c2ccc3c(c2)c(-c2cc4ccccc4n2C)nn3C)cc1C(F)(F)F` [compound 70, N-(4-Methoxy-3-(trifluoromethyl)phenyl)-1-methyl-3-(1-methyl-1H-indol-2-yl)-1H-indazole-5-carboxamide], the half-inhibitory concentration (IC50) in series [1] was 626 nM.

Turning to `COc1ccc(NC(=O)c2ccc3c(c2)c(-c2cc4ccccc4n2C)nn3C)cc1C#N` [compound 71, N-(3-Cyano-4-methoxyphenyl)-1-methyl-3-(1-methyl-1H-indol-2-yl)-1H-indazole-5-carboxamide], the IC50 in series [1] amounted to 168 nM.

With `COc1ccc(NC(=O)c2ccc3c(c2)c(-c2cc4ccccc4n2C)nn3C)cc1-c1ccccc1` [compound 72, N-(6-Methoxy-[1,1′-biphenyl]-3-yl)-1-methyl-3-(1-methyl-1H-indol-2-yl)-1H-indazole-5-carboxamide], the IC50 in series [1] worked out at 2390 nM.

On to `COc1ccc(NC(=O)c2ccc3c(c2)c(-c2cc4ccccc4n2C)nn3C)cc1S(N)(=O)=O` [compound 73, N-(4-Methoxy-3-sulfamoylphenyl)-1-methyl-3-(1-methyl-1H-indol-2-yl)-1H-indazole-5-carboxamide], for which the IC50 in series [1] stood at 111 nM.

On to `COc1ccc(NC(=O)c2ccc3c(c2)c(-c2cc4ccccc4n2C)nn3C)cc1NC(C)=O` [compound 74, N-(3-Acetamido-4-methoxyphenyl)-1-methyl-3-(1-methyl-1H-indol-2-yl)-1H-indazole-5-carboxamide], for which, in series [1], the IC50 was 32 nM.

Compound `COc1ccc(NC(=O)c2ccc3c(c2)c(-c2cc4ccccc4n2C)nn3C)c(C(N)=O)c1` [compound 75, N-(2-Carbamoyl-4-methoxyphenyl)-1-methyl-3-(1-methyl-1H-indol-2-yl)-1H-indazole-5-carboxamide] returned a 50% inhibitory concentration (IC50) in series [1] of 4370 nM.

Regarding `Cc1cc(N)ccc1-c1nn(C)c2ccc(-c3cnc(C(F)(F)F)nc3)cc12` [compound 77, 3-Methyl-4-(1-methyl-5-(2-(trifluoromethyl)pyrimidin-5-yl)-1H-indazol-3-yl)aniline], the IC50 was 3630 nM in series [1] and above 10000 nM in series [2].

`Cc1cc(N)ccc1-c1nn(C)c2ccc(-c3cccnc3)cc12` [compound 78, 3-Methyl-4-(1-methyl-5-(pyridin-3-yl)-1H-indazol-3-yl)aniline]: the IC50 is above 10000 nM in series [1] and 2440 nM in series [2].

For the compound `Cc1ccc(-c2ccc3c(c2)c(-c2ccc(N)cc2C)nn3C)cn1` [compound 79, 3-Methyl-4-(1-methyl-5-(6-methylpyridin-3-yl)-1H-indazol-3-yl)aniline], the values for the IC50 in series [1] and in series [2] were above 10000 nM and 3210 nM, respectively.

Turning to `COc1ccc(-c2ccc3c(c2)c(-c2ccc(N)cc2C)nn3C)cn1` [compound 80, 4-(5-(6-Methoxypyridin-3-yl)-1-methyl-1H-indazol-3-yl)-3-methylaniline], the IC50 is above 10000 nM in series [1] and 1020 nM in series [2].

By IC50 is commonly meant the point on the concentration scale where inhibition reaches its midpoint. Low values mean greater potency in that assay, high ones weaker potency in that assay.
